# Activity calls are given as the source filed them. How the calls were made is not given here.
# System: GENE-TOX genotoxicity assays, various organisms and cells
# Experiment: GENE-TOX mutagenicity studies
# Settings: for call: Assay Type: In vivo carcinogenicity studies
# [1] = Species/Cell Type: Salmonella typhimurium (one or more of the five standard strains: TA98, TA100, TA1535, TA1537, and TA1538), Assay Type: Histidine reverse gene mutation, Ames assay, Assay Code: SAL+, Evaluation Type: Evaluation A (Pre-1980)
# [2] = Species/Cell Type: Escherichia coli polA (W3119 vs P3478), Assay Type: Rec-assay, DNA effects (bacterial DNA repair), Assay Code: RE1+, Evaluation Type: Evaluation A (Pre-1980)
# [3] = Species/Cell Type: Saccharomyces cerevisiae, Assay Type: Mitotic recombination or gene conversion, Assay Code: YEH+, Evaluation Type: Evaluation A (Pre-1980)
# [4] = Species/Cell Type: Mammalian polychromatic erythrocytes, Assay Type: Micronucleus test, chromosome aberrations, Assay Code: MNT+, Evaluation Type: Evaluation B (Post-1980)
# [5] = Species/Cell Type: Salmonella typhimurium (one or more of the five standard strains: TA98, TA100, TA1535, TA1537, and TA1538), Assay Type: Histidine reverse gene mutation, Ames assay, Assay Code: SAL+*, Activation: With metabolic activation, Evaluation Type: Evaluation A (Pre-1980)
# [6] = Species/Cell Type: Salmonella typhimurium, Assay Type: Forward and reverse gene mutation, host-mediated assay, Assay Code: HMA-, Evaluation Type: Evaluation A (Pre-1980)
# [7] = Species/Cell Type: Escherichia coli WP2, Assay Type: Tryptophan reverse gene mutation, Assay Code: WP2+, Evaluation Type: Evaluation A (Pre-1980)
# [8] = Species/Cell Type: Nonhuman, Assay Type: Sister-chromatid exchange (SCE) in vitro, Assay Code: SC2T, Evaluation Type: Evaluation B (Post-1980)
# [9] = Species/Cell Type: Drosophila melanogaster, Assay Type: Sex-linked recessive lethal gene mutation, Assay Code: SRL+, Evaluation Type: Evaluation A (Pre-1980)
# [10] = Species/Cell Type: Saccharomyces cerevisiae, Assay Type: Mitotic recombination or gene conversion, Assay Code: YEC+, Evaluation Type: Evaluation A (Pre-1980)
# [11] = Species/Cell Type: Chinese hamster lung (V79) cells, Assay Type: Forward gene mutation at the HPRT or ouabain locus, Assay Code: V79+, Evaluation Type: Evaluation A (Pre-1980)
compound,measurement,setting,value
COc1cc(C=O)ccc1O,mutagenic call,"Species/Cell Type: Human lymphocytes, Assay Type: Sister-chromatid exchange (SCE) in vitro, Assay Code: SCL+D, Dose Response: With dose response, Evaluation Type: Evaluation B (Post-1980)",active; positive
same,mutagenic call,"Species/Cell Type: Human, Assay Type: Sister-chromatid exchange (SCE) in vitro, Assay Code: SC1+D, Dose Response: With dose response, Evaluation Type: Evaluation B (Post-1980)",active; positive
C[C@H](CC[C@H](C)OS(C)(=O)=O)OS(C)(=O)=O,mutagenic call,"Species/Cell Type: Rodents, Sex: Male, Assay Type: Dominant lethal test, Assay Code: DLT+, Evaluation Type: Evaluation A (Pre-1980)",active; positive
O=S(O)S(=O)(=O)O,mutagenic call,"Species/Cell Type: Mammalian polychromatic erythrocytes, Assay Type: Micronucleus test, chromosome aberrations, Assay Code: MNTT, Evaluation Type: Evaluation B (Post-1980)",no conclusion
same,mutagenic call,"Species/Cell Type: Nonhuman, Assay Type: Sister-chromatid exchange (SCE) in vitro, Assay Code: SC2T, Evaluation Type: Evaluation A (Pre-1980)",no conclusion
same,mutagenic call,"Species/Cell Type: Nonhuman, Assay Type: Sister-chromatid exchange (SCE) in vivo, Assay Code: SC3-, Evaluation Type: Evaluation B (Post-1980)",inactive; negative
CCCCCCCCCCCCCC(=O)N(OC(C)=O)c1ccc2c(c1)Cc1ccccc1-2,mutagenic call,"Species/Cell Type: Human diploid fibroblasts, Assay Type: Unscheduled DNA synthesis (UDS) in vitro, DNA effects, Assay Code: UDH+, Evaluation Type: Evaluation A (Pre-1980)",active; positive
same,mutagenic call,[1],active; positive
CN(C)c1ccc(C(=N)c2ccc(N(C)C)cc2)cc1,mutagenic call,[2],active; positive
same,mutagenic call,"Species/Cell Type: Mammalian polychromatic erythrocytes, Assay Type: Micronucleus test, chromosome aberrations, Assay Code: MNTT, Evaluation Type: Evaluation A (Pre-1980)",no conclusion
same,call,"Species/Cell Type: Nonhuman, Assay Code: CCG+L, Evaluation Type: Evaluation A (Pre-1980)",active; positive
same,mutagenic call,"Species/Cell Type: Nonhuman, Assay Type: Sister-chromatid exchange (SCE) in vitro, Assay Code: SC2+*, Activation: With metabolic activation, Evaluation Type: Evaluation B (Post-1980)",active; positive
same,mutagenic call,"Species/Cell Type: Nonhuman, Assay Type: Sister-chromatid exchange (SCE) in vivo, Assay Code: SC3+, Evaluation Type: Evaluation B (Post-1980)",active; positive
same,mutagenic call,[3],active; positive
same,mutagenic call,"Species/Cell Type: Salmonella typhimurium (one or more of the five standard strains: TA98, TA100, TA1535, TA1537, and TA1538), Assay Type: Histidine reverse gene mutation, Ames assay, Assay Code: SAL-, Evaluation Type: Evaluation A (Pre-1980)",inactive; negative
same,mutagenic call,"Species/Cell Type: Syrian hamster embryo (SHE) cells, Assay Type: Cell transformation, clonal assay, Assay Code: CTCT, Evaluation Type: Evaluation A (Pre-1980)",no conclusion
c1ccc2[nH]c(-c3cscn3)nc2c1,mutagenic call,"Species/Cell Type: Aspergillus nidulans, Assay Type: Aneuploidy, chromosome aberrations, Assay Code: ASN+, Evaluation Type: Evaluation A (Pre-1980)",active; positive
same,mutagenic call,"Species/Cell Type: Aspergillus nidulans, Assay Type: Mitotic recombination, Assay Code: ASGT, Evaluation Type: Evaluation A (Pre-1980)",no conclusion
same,mutagenic call,[4],active; positive
CCN(CC)c1ccc(C(=C2C=CC(=[N+](CC)CC)C=C2)c2ccc(S(=O)(=O)O)cc2S(=O)(=O)[O-])cc1,mutagenic call,[4],active; positive
C=COCC(F)(F)F,mutagenic call,"Species/Cell Type: Nonhuman, Assay Type: Sister-chromatid exchange (SCE) in vitro, Assay Code: SC2+, Evaluation Type: Evaluation B (Post-1980)",active; positive
same,mutagenic call,[5],active; positive
same,mutagenic call,"Species/Cell Type: Salmonella typhimurium and Escherichia coli, Assay Type: Forward and reverse gene mutation, body fluid assay, Assay Code: BFB-, Evaluation Type: Evaluation A (Pre-1980)",inactive; negative
O=C(CCN1CCCC1)c1ccc2c(c1)OCO2,mutagenic call,[6],inactive; negative
O=Nc1ccc(NNc2ccccc2)cc1,mutagenic call,[1],active; positive
O=[N+]([O-])c1ccc(-c2csc(Nc3ccccc3)n2)o1,mutagenic call,[7],active; positive
same,mutagenic call,"Species/Cell Type: Escherichia coli WP2 UVRA, Assay Type: Tryptophan reverse gene mutation, Assay Code: WPU-, Evaluation Type: Evaluation A (Pre-1980)",inactive; negative
c1cncc(C2=NCCC2)c1,mutagenic call,[8],no conclusion
CN(C)N=Nc1c(Cl)cc(Cl)cc1Cl,mutagenic call,"Species/Cell Type: Drosophila melanogaster, Assay Type: Aneuploidy, partial sex chromosome loss, chromosome aberrations, Assay Code: DAPT, Evaluation Type: Evaluation A (Pre-1980)",no conclusion
same,mutagenic call,"Species/Cell Type: Drosophila melanogaster, Assay Type: Aneuploidy, whole sex chromosome loss, chromosome aberrations, Assay Code: DACT, Evaluation Type: Evaluation A (Pre-1980)",no conclusion
same,mutagenic call,[9],active; positive
same,mutagenic call,"Species/Cell Type: Mammalian polychromatic erythrocytes, Assay Type: Micronucleus test, chromosome aberrations, Assay Code: MNT+, Evaluation Type: Evaluation A (Pre-1980)",active; positive
same,mutagenic call,"Species/Cell Type: Neurospora crassa, Assay Type: Forward gene mutation, Assay Code: NEF+, Evaluation Type: Evaluation A (Pre-1980)",active; positive
same,mutagenic call,[10],active; positive
CCCCN(COC(C)=O)N=O,mutagenic call,[1],active; positive
same,mutagenic call,"Species/Cell Type: Syrian hamster embryo (SHE) cells, Assay Type: Cell transformation, clonal assay, Assay Code: CTC+, Evaluation Type: Evaluation A (Pre-1980)",active; positive
CC1CN(N=O)CCN1N=O (stereo unspecified),mutagenic call,[5],active; positive
[O-2].[O-2].[O-2].[Sb+3].[Sb+3],mutagenic call,"Species/Cell Type: Bacillus subtilis (H17 vs M45), Assay Type: Rec-assay, spot test, DNA effects (bacterial DNA repair), Assay Code: REW+, Evaluation Type: Evaluation A (Pre-1980)",active; positive
CCCCCCCCO,mutagenic call,[8],no conclusion
O=C1c2ccccc2C(=O)N1SC(Cl)(Cl)Cl,mutagenic call,"Species/Cell Type: Bacillus subtilis (H17 vs M45), Assay Type: Rec-assay, spot test, DNA effects (bacterial DNA repair), Assay Code: REWT, Evaluation Type: Evaluation A (Pre-1980)",no conclusion
same,mutagenic call,"Species/Cell Type: Chinese hamster ovary (CHO) cells, Assay Type: Forward gene mutation at the HPRT locus, Assay Code: CHO+, Evaluation Type: Evaluation B (Post-1980)",active; positive
same,mutagenic call,[9],active; positive
same,mutagenic call,[7],active; positive
same,mutagenic call,"Species/Cell Type: Escherichia coli WP2 UVRA, Assay Type: Tryptophan reverse gene mutation, Assay Code: WPU+/-*, Activation: With metabolic activation, Evaluation Type: Evaluation A (Pre-1980)","inactive; positive without activation, negative with activation"
same,mutagenic call,[2],active; positive
same,mutagenic call,"Species/Cell Type: Human diploid fibroblasts, Assay Type: Unscheduled DNA synthesis (UDS) in vitro, DNA effects, Assay Code: UDH-, Evaluation Type: Evaluation A (Pre-1980)",inactive; negative
same,mutagenic call,"Species/Cell Type: Rodents, Sex: Male, Assay Type: Dominant lethal test, Assay Code: DLTT, Evaluation Type: Evaluation A (Pre-1980)",no conclusion
same,mutagenic call,[10],active; positive
same,mutagenic call,[3],active; positive
same,mutagenic call,[1],active; positive
same,mutagenic call,[6],inactive; negative
O=C(CCCN1CCC(O)(c2ccc(Cl)cc2)CC1)c1ccc(F)cc1,mutagenic call,"Species/Cell Type: Allium cepa, Assay Type: Chromosome aberrations, Assay Code: ALC+D, Dose Response: With dose response, Evaluation Type: Evaluation A (Pre-1980)",active; positive
same,mutagenic call,"Species/Cell Type: Human, Assay Type: Sister-chromatid exchange (SCE) in vitro, Assay Code: SC1T, Evaluation Type: Evaluation B (Post-1980)",no conclusion
CCC1(CC)C(=O)NC(=O)NC1=O,mutagenic call,"Species/Cell Type: Nonhuman bone marrow, Assay Type: Chromosome aberrations, in vivo, Assay Code: CY#+, Evaluation Type: Evaluation A (Pre-1980)",active; positive
same,mutagenic call,"Species/Cell Type: Nonhuman, Assay Type: Sister-chromatid exchange (SCE) in vitro, Assay Code: SC2-, Evaluation Type: Evaluation A (Pre-1980)",inactive; negative
CCCCSP(=O)(SCCCC)SCCCC,mutagenic call,"Species/Cell Type: Nonhuman, Assay Type: Sister-chromatid exchange (SCE) in vitro, Assay Code: SC2-, Evaluation Type: Evaluation B (Post-1980)",inactive; negative
CC(=O)OC[C@H]1OC(OC(C)=O)[C@H](NC(=O)N(C)N=O)[C@@H](OC(C)=O)[C@@H]1OC(C)=O (stereo partly specified),mutagenic call,[11],active; positive
O=[N+]([O-])c1ccc(O)c([N+](=O)[O-])c1,mutagenic call,"Species/Cell Type: Allium cepa, Assay Type: Chromosome aberrations, Assay Code: ALC+, Evaluation Type: Evaluation A (Pre-1980)",active; positive
same,mutagenic call,"Species/Cell Type: Arabidopsis species, Assay Type: Gene mutation, Assay Code: ARM-, Evaluation Type: Evaluation A (Pre-1980)",inactive; negative
Cn1c[n+](C)cc1[N+](=O)[O-],mutagenic call,"Species/Cell Type: Salmonella typhimurium (one or more of the five standard strains: TA98, TA100, TA1535, TA1537, and TA1538), Assay Type: Histidine reverse gene mutation, Ames assay, Assay Code: SALT, Evaluation Type: Evaluation A (Pre-1980)",no conclusion
COP(N)(=O)SC (stereo unspecified),mutagenic call,[8],no conclusion
CCOS(=O)(=O)OCCOS(=O)(=O)OCC,mutagenic call,"Species/Cell Type: Schizosaccharomyces pombe, Assay Type: Reverse gene mutation, Assay Code: YEZ+, Evaluation Type: Evaluation A (Pre-1980)",active; positive
CC(C)c1ccccc1OC(=O)N(C)N=O,mutagenic call,"Species/Cell Type: Bacillus subtilis (H17 vs M45T), Assay Type: Rec-assay, spot test, DNA effects (bacterial DNA repair), Assay Code: REX+, Evaluation Type: Evaluation A (Pre-1980)",active; positive
same,mutagenic call,[7],active; positive
Cc1c2c(c(CO)c3ccc4ccccc4c13)[C@H](O)[C@@H](O)C=C2,mutagenic call,[11],active; positive
same,call,"Species/Cell Type: Nonhuman, Assay Code: CCGT, Evaluation Type: Evaluation A (Pre-1980)",no conclusion

# Source: PubChem BioAssay AID1259408 (Genetic Toxicology Data Bank (GENE-TOX), 2018)
